Earlier results as cited in publication PMC3892053, “Pharmacokinetic/pharmacodynamic modeling for the determination of a cimicoxib dosing regimen in the dog” (BMC Veterinary Research, 2013).
Like-named read-outs stand apart in the source and are kept apart here.

Experiments:
[1] = cited from earlier work
[2] = test system: nociceptive threshold; design: method as in PMID 19186002; conditions: rats, given systemically; cited from earlier work
[3] = test system: COX-1/COX-2; conditions: cited from earlier work; for greater potency for COX-2 inhibition: highly selective COX-2 inhibitors
[4] = test system: g.i.t side effects; design: method as in PMID 16871494; conditions: large scale survey, mainly vomiting; cited from earlier work
[5] = test system: wound healing; design: method as in PMID 19175721; conditions: mechanism independent of prostaglandin synthesis; cited from earlier work
[6] = as quoted in Discussion, no reference given
[7] = population PK survey in osteoarthritic dogs

SMILES: CC(C(=O)O)c1ccc2c(c1)[nH]c1ccc(Cl)cc12 (stereo not drawn) [Carprofen]
- half-life ([1]; dogs): about 9 h

SMILES: Cc1ccc(-c2cc(C(F)(F)F)nn2-c2ccc(S(N)(=O)=O)cc2)cc1 [celecoxib]
- hypoalgesia (ipsilateral nociceptive threshold raised above basal values) [2]: induced a state of hypoalgesia

SMILES: CC1(C)OC(=O)C(OCC2CC2)=C1c1ccc(S(C)(=O)=O)cc1 [firocoxib]
- greater potency for COX-2 inhibition [3]: more than 100 fold
- COX-1/COX-2 selectivity index ([3]; whole blood assay): 384
- withdrawal rate associated with g.i.t side effects [4]: 2.9 % of dogs
- effect on wound healing [5]: slow down wound healing
- half-life [1, 6]: 7 h
- plasma clearance ([1]; dog): 7.7 mL/min/kg
- half-life ([1]; mixed-breed dogs): 5.9 h

SMILES: COc1ccc2c(c1)c(CC(=O)O)c(C)n2C(=O)c1ccc(Cl)cc1 [indomethacin]
- hypoalgesia (ipsilateral nociceptive threshold raised above basal values) [2]: not observed

SMILES: NS(=O)(=O)c1ccc(-n2nc(C(F)(F)F)cc2-c2ccc(F)cc2)cc1 [mavacoxib]
- half-life ([1]; dog, in vivo): 415 h
- plasma clearance ([1]; dog, in vivo): 0.045 mL/min/kg
- half-life of some beagle dogs ([1]; laboratory beagle dogs): > 720 h
- terminal half-life in some dogs (5% of the population) [1, 7]: exceeded 80 days
- terminal half-life, extreme values [1, 7]: up to 140 days
- typical terminal half-life (population mean) [1, 7]: 1060 h

SMILES: CN1C(C(=O)Nc2ccccn2)=C(O)c2ccccc2S1(=O)=O [piroxicam]
- hypoalgesia (ipsilateral nociceptive threshold raised above basal values) [2]: not observed

SMILES: CCc1ccc(Nc2c(F)c(F)cc(F)c2F)c(CC(=O)O)c1 [robenacoxib]
- greater potency for COX-2 inhibition [3]: more than 100 fold
- half-life [1, 6]: 1 h
- half-life ([1]; beagle dogs): 0.63 h
- plasma clearance ([1]; dog): 13.5 mL/min/kg
